Results reported in publication PMC9234961 (Journal of Medicinal Chemistry, 2022).

Columns and labels:
[1] = target: kinases (468) (Homo sapiens, UniProt O00750); conditions: PIK3C2B; 1000 nM
[2] = target: kinases (468) (Homo sapiens, UniProt O14578); conditions: CIT; 1000 nM
[3] = target: kinases (468) (Homo sapiens, UniProt O75385); conditions: kinase ULK1 (Entrez ULK1); compound concentration 1000 nM
[4] = target: kinases (468) (Homo sapiens, UniProt O95382); conditions: ASK2 (MAP3K6); 1000 nM
[5] = target: kinases (468) (Homo sapiens, UniProt P08581, Y1235D); conditions: MET(Y1235D); 1000 nM
[6] = target: kinases (468) (Homo sapiens, UniProt P08922); conditions: kinase ROS1 (Entrez ROS1); compound concentration 1000 nM
Sequence of kinases (468) (Homo sapiens, UniProt P08922) (P08922 28-2347): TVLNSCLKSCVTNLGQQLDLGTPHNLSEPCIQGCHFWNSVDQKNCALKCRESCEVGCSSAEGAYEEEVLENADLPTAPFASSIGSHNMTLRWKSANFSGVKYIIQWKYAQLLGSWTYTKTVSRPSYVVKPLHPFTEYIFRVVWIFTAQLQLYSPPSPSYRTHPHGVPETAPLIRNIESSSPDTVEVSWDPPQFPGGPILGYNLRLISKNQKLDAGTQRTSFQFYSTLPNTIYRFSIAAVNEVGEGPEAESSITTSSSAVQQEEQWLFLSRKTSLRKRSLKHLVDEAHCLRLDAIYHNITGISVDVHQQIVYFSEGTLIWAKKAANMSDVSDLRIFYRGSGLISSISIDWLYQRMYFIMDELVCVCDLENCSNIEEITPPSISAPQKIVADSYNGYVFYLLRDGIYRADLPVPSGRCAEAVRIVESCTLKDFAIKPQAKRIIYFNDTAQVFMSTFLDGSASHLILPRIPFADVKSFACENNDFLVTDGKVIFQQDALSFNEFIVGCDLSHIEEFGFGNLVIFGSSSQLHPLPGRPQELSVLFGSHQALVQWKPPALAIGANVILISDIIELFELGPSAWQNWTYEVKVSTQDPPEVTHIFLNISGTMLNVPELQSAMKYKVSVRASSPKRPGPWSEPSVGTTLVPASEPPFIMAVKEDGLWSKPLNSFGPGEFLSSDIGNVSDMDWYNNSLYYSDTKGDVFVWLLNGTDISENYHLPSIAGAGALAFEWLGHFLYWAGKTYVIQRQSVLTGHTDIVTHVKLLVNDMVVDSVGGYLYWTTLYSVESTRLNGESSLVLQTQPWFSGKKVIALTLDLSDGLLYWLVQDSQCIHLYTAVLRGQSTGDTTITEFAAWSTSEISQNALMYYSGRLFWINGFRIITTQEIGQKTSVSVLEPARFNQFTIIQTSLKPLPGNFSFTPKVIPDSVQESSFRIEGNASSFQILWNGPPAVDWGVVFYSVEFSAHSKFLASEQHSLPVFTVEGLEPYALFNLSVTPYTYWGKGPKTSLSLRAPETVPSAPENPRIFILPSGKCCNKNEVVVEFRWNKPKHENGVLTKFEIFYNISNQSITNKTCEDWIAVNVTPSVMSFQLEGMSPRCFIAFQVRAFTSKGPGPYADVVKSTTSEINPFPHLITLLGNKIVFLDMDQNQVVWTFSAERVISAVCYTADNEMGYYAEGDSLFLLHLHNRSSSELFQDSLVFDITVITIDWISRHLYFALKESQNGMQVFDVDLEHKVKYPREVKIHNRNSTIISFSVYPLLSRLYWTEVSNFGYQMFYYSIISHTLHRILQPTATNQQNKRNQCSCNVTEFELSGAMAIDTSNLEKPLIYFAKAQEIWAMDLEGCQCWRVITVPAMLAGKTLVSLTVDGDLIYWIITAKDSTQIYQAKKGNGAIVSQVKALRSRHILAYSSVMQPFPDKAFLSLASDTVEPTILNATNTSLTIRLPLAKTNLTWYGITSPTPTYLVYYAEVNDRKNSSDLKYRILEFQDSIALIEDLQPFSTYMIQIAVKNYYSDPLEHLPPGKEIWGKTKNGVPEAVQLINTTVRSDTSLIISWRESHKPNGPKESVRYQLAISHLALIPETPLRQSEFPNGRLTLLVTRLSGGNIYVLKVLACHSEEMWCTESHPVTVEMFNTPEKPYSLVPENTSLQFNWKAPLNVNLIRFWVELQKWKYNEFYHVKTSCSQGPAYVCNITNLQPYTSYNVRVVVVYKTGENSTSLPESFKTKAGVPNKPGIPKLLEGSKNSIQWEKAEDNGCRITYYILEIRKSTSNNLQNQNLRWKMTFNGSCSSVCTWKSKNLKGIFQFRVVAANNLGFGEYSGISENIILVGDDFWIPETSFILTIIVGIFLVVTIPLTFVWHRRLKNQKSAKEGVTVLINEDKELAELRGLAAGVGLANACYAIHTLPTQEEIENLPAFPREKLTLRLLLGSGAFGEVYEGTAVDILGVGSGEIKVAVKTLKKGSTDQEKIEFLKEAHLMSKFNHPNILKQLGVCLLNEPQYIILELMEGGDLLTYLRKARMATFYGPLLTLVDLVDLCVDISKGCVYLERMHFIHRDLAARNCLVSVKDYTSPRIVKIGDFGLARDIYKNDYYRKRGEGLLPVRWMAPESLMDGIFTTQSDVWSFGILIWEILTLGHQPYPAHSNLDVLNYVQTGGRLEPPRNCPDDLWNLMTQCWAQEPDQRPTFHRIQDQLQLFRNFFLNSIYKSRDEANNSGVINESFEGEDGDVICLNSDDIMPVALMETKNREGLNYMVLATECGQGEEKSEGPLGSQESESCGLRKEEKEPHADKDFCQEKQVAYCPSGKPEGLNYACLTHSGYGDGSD

[7] = target: kinases (468) (Homo sapiens, UniProt P0C1S8); conditions: kinase WEE2 (Entrez WEE2); compound concentration 1000 nM
[8] = target: kinases (468) (Homo sapiens, UniProt P10721, D816V); conditions: KIT(D816V); 1000 nM
Sequence of kinases (468) (Homo sapiens, UniProt P10721, D816V) (P10721 26-976 D816V): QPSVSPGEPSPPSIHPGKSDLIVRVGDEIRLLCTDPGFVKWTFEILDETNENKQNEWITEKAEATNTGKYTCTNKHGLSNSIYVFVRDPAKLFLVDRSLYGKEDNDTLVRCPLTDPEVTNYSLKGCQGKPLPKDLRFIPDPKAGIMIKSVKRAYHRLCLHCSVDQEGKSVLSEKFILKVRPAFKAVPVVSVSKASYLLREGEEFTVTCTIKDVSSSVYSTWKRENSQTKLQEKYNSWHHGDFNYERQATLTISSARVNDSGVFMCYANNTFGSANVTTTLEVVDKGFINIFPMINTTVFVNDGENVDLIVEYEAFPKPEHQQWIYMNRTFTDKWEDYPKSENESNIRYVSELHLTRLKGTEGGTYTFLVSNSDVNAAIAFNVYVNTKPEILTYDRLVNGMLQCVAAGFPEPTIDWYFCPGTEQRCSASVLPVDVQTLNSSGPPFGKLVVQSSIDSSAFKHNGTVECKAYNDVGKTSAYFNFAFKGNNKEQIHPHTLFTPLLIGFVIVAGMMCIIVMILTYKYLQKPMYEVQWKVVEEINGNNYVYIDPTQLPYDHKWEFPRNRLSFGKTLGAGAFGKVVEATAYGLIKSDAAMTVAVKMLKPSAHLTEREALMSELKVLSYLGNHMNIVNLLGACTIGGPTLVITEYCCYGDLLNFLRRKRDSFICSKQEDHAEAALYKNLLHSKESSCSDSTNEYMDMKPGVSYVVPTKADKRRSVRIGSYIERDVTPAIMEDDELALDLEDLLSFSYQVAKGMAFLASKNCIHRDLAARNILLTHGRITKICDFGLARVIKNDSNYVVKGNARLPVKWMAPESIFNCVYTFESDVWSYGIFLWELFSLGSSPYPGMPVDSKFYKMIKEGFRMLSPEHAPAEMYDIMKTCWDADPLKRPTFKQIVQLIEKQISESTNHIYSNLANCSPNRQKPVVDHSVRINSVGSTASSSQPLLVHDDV

[9] = target: kinases (468) (Homo sapiens, UniProt P15735); conditions: PHKG2; 1000 nM
[10] = target: kinases (468) (Homo sapiens, UniProt P36888, D835H); conditions: FLT3(D835H); 1000 nM
[11] = target: kinases (468) (Homo sapiens, UniProt P36888, D835Y); conditions: FLT3(D835Y); 1000 nM
[12] = target: kinases (468) (Homo sapiens, UniProt P36888, K663Q); conditions: FLT3(K663Q); 1000 nM
[13] = target: kinases (468) (Homo sapiens, UniProt P36894); conditions: BMPR1A; 1000 nM
[14] = target: kinases (468) (Homo sapiens, UniProt P42336, H1047L); conditions: PIK3CA(H1047L); 1000 nM
[15] = target: kinases (468) (Homo sapiens, UniProt P42684); conditions: ABL2; 1000 nM
[16] = target: kinases (468) (Homo sapiens, UniProt P45985); conditions: MEK4 (MAP2K4); 1000 nM
Sequence of kinases (468) (Homo sapiens, UniProt P45985) (P45985 whole entry): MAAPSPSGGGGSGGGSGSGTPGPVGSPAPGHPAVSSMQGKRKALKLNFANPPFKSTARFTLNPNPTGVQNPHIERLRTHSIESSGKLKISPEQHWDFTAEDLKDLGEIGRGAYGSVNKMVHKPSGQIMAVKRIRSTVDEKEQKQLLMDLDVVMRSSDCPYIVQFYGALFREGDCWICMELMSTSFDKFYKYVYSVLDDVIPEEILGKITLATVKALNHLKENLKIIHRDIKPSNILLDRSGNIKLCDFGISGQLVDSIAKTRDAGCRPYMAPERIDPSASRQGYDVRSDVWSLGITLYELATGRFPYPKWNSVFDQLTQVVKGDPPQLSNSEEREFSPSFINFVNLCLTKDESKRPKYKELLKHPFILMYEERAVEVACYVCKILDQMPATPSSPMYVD

[17] = target: kinases (468) (Homo sapiens, UniProt P49841); conditions: GSK3B; 1000 nM
[18] = target: kinases (468) (Homo sapiens, UniProt Q04759); conditions: PRKCQ; 1000 nM
[19] = target: kinases (468) (Homo sapiens, UniProt Q05397); conditions: FAK (PTK2); 1000 nM
[20] = target: kinases (468) (Homo sapiens, UniProt Q08881); conditions: ITK; 1000 nM
[21] = target: kinases (468) (Homo sapiens, UniProt Q13163); conditions: MEK5 (MAP2K5); 1000 nM
[22] = target: kinases (468) (Homo sapiens, UniProt Q13882); conditions: BRK (PTK6); 1000 nM
[23] = target: kinases (468) (Homo sapiens, UniProt Q15303); conditions: ERBB4; 1000 nM
[24] = target: kinases (468) (Homo sapiens, UniProt Q15569); conditions: kinase TESK1 (Entrez TESK1); compound concentration 1000 nM
[25] = target: kinases (468) (Homo sapiens, UniProt Q16620); conditions: kinase TRKB (Entrez NTRK2); compound concentration 1000 nM
[26] = target: kinases (468) (Homo sapiens, UniProt Q56UN5); conditions: kinase YSK4 (Entrez MAP3K19); compound concentration 1000 nM
[27] = target: kinases (468) (Homo sapiens, UniProt Q8IVW4); conditions: CDKL3; 1000 nM
[28] = target: kinases (468) (Homo sapiens, UniProt Q8NG66); conditions: NEK11; 1000 nM
[29] = target: kinases (468) (Homo sapiens, UniProt Q8TF76); conditions: HASPIN (GSG2); 1000 nM
[30] = target: kinases (468) (Homo sapiens, UniProt Q99683); conditions: ASK1 (MAP3K5); 1000 nM
Sequence of kinases (468) (Homo sapiens, UniProt Q99683) (Q99683 whole entry): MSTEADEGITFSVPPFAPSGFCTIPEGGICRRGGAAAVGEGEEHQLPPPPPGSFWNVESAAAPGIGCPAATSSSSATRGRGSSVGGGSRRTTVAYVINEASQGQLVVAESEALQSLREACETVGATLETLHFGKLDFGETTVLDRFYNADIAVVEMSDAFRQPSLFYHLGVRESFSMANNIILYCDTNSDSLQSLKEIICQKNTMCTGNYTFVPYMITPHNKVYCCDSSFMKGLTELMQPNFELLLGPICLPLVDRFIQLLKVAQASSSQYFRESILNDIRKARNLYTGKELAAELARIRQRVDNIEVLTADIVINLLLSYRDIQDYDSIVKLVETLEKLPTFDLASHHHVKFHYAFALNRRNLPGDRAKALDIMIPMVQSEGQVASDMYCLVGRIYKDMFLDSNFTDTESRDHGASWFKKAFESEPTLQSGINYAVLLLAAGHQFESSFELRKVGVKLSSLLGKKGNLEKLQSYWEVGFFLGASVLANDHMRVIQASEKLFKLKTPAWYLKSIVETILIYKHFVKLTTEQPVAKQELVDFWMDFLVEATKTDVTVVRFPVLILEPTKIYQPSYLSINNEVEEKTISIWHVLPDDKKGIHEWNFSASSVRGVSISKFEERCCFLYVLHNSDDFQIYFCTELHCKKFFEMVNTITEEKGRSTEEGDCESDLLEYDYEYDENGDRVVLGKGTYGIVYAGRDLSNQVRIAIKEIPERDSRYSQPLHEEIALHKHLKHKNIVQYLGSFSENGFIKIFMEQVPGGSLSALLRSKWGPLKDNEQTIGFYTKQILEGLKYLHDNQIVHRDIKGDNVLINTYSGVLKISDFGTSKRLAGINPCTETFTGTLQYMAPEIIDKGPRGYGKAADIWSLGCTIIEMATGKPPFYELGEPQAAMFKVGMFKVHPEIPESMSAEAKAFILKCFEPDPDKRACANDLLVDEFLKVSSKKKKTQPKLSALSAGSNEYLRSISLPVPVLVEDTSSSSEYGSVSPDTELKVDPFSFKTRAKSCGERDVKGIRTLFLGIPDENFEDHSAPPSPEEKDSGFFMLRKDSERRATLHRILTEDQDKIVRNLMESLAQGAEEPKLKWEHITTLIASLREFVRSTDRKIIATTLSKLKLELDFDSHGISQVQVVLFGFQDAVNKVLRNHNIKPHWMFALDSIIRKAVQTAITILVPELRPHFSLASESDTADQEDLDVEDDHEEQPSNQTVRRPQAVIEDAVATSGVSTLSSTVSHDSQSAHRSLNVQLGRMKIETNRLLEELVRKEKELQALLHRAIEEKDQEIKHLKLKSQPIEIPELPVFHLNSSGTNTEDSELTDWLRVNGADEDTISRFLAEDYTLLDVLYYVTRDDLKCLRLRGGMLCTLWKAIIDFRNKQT

[31] = target: kinases (468) (Homo sapiens, UniProt Q99755); conditions: PIP5K1A; 1000 nM
[32] = target: kinases (468) (Homo sapiens, UniProt Q99759); conditions: MAP3K3; 1000 nM
[33] = target: kinases (468) (Homo sapiens, UniProt Q9P2K8, S808G); conditions: GCN2(Kin.Dom.2,S808G) (EIF2AK4); 1000 nM
[34] = target: kinases (468) (Homo sapiens, UniProt Q9UM73, C1156Y); conditions: ALK(C1156Y); 1000 nM

C[C@H]1C[C@@H](O)CN(c2ncc(Cl)c(Nc3ccc4c(c3)c3c(c(=O)n4C)OCC(F)(F)[C@H](C4CC4)N3)n2)C1 [CCT373566_9A]
Percent Control [1]: 100% | Percent Control [2]: 99% | Percent Control [3]: 93% | Percent Control [4]: 98% | Percent Control [5]: 99% | Percent Control [6]: 100% | Percent Control [7]: 93% | Percent Control [8]: 100% | Percent Control [9]: 100% | Percent Control [10]: 90% | Percent Control [11]: 90% | Percent Control [12]: 97% | Percent Control [13]: 100% | Percent Control [14]: 84% | Percent Control [15]: 100% | Percent Control [16]: 90% | Percent Control [17]: 94% | Percent Control [18]: 100% | Percent Control [19]: 96% | Percent Control [20]: 100% | Percent Control [21]: 100% | Percent Control [22]: 100% | Percent Control [23]: 99% | Percent Control [24]: 100% | Percent Control [25]: 97% | Percent Control [26]: 100% | Percent Control [27]: 100% | Percent Control [28]: 95% | Percent Control [29]: 100% | Percent Control [30]: 100% | Percent Control [31]: 77% | Percent Control [32]: 100% | Percent Control [33]: 100% | Percent Control [34]: 95%
